Assay results published in ChEMBL document CHEMBL1201862, “PubChem BioAssay data set” (2004).
Calls of active or inactive are those of the source.

What was measured:
[1] = biological target: Genome polyprotein (dengue virus type 2, UniProt P29990); experiment: flavivirus cap methylation enzyme inhibition – biochemical, confirmation dose response, primary screen (AID 588689); assay type: functional
[2] = biological target: Beta Lactamase (Pseudomonas aeruginosa, UniProt Q932Y6); experiment: BLA reporter interference, concentration series – BLA reporter cells, FRET fluorescence, artefact control for TLR9-MyD88 binding inhibitor project, dose response (AID 588341); assay type: cell-based;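 note: cell based assay in CHO-K1 cells stably expressing beta-lactamase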
[3] = biological target: Voltage-gated N-type calcium channel alpha-1B subunit/Amyloid beta A4 precursor protein-binding family A member 1 (Homo sapiens, UniProt Q00975+Q02410); assay type: protein assay
[4] = biological target: T1, Tyrosyl-DNA phosphodiesterase 2 (Homo sapiens, UniProt O95551); experiment: potency against TDP2 phosphodiesterase activity – biochemical, epi absorbance, IC50, dose response (AID 743297)
T1 sequence (O95551 whole entry): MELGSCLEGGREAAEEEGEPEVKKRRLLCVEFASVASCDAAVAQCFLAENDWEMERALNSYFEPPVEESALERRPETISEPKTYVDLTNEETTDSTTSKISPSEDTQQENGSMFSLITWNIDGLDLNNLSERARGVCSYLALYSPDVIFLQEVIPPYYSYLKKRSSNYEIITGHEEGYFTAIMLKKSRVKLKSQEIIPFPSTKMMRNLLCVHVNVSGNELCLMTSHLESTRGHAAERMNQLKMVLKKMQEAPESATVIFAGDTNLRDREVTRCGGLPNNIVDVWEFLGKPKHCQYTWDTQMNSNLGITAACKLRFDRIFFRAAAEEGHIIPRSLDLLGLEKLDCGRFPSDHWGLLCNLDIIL

[5] = biological target: Procathepsin L (Homo sapiens, UniProt P07711)
[6] = biological target: Mitogen-activated protein kinase 8 (Homo sapiens, UniProt P45983); assay type: functional;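 note: value comes from one member of a kinome-wide kinase profiling panel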
Mitogen-activated protein kinase 8, sequence (P45983 whole entry): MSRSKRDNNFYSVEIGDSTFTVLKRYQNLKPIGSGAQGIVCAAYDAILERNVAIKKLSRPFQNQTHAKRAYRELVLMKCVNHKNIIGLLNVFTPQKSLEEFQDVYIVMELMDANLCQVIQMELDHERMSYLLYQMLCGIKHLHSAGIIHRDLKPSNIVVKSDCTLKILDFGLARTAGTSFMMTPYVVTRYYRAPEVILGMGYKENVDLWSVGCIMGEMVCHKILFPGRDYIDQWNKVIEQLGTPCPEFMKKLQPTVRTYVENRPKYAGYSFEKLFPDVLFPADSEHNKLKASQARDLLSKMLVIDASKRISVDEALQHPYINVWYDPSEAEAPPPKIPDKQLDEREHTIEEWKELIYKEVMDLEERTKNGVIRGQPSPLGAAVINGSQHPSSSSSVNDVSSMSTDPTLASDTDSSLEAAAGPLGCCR

[7] = biological target: 5'-AMP-activated protein kinase catalytic subunit alpha-1 (Homo sapiens, UniProt Q13131); assay type: functional
[8] = biological target: Serine/threonine-protein kinase PLK4 (Homo sapiens, UniProt O00444); assay type: functional;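 note: PLK4 measured as one member of a kinome-wide kinase profiling panel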
[9] = biological target: Fibroblast growth factor receptor 1 (Homo sapiens, UniProt P11362); assay type: functional
[10] = biological target: Mitogen-activated protein kinase 9 (Homo sapiens, UniProt P45984); assay type: functional;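 note: value from a kinome panel profiling assay, MAPK9 panel entry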
[11] = biological target: Tyrosine-protein kinase Fyn (Homo sapiens, UniProt P06241); assay type: functional
Tyrosine-protein kinase Fyn, sequence (P06241 whole entry, canonical isoform): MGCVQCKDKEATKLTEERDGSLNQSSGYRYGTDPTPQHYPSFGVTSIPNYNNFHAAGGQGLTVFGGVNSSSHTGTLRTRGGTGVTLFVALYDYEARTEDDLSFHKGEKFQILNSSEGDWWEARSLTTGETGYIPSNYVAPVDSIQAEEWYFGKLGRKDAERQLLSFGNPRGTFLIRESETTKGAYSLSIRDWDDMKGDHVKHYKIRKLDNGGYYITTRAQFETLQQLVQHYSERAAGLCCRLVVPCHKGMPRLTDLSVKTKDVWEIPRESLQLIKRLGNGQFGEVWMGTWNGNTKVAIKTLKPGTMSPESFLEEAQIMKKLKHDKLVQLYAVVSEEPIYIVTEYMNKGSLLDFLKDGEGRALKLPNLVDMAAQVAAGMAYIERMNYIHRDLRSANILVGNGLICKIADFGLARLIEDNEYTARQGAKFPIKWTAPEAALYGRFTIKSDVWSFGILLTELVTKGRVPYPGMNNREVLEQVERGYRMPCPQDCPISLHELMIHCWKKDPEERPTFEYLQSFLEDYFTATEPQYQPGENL

[12] = biological target: Casein kinase I isoform alpha (Homo sapiens, UniProt P48729); assay type: functional
[13] = biological target: Protein kinase C zeta type (Homo sapiens, UniProt Q05513); assay type: functional;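 note: measured as one member of a broad kinase profiling panel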
[14] = biological target: Serine/threonine-protein kinase PAK 4 (Homo sapiens, UniProt O96013); assay type: functional;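 note: value obtained within a kinome profiling panel in which PAK4 was one of the panel members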
[15] = biological target: Serine/threonine-protein kinase TAO1 (Homo sapiens, UniProt Q7L7X3); assay type: functional
[16] = biological target: SRSF protein kinase 1 (Homo sapiens, UniProt Q96SB4); assay type: functional;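 note: measured as one member of a kinome-wide kinase profiling panel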
SRSF protein kinase 1, sequence (Q96SB4 whole entry): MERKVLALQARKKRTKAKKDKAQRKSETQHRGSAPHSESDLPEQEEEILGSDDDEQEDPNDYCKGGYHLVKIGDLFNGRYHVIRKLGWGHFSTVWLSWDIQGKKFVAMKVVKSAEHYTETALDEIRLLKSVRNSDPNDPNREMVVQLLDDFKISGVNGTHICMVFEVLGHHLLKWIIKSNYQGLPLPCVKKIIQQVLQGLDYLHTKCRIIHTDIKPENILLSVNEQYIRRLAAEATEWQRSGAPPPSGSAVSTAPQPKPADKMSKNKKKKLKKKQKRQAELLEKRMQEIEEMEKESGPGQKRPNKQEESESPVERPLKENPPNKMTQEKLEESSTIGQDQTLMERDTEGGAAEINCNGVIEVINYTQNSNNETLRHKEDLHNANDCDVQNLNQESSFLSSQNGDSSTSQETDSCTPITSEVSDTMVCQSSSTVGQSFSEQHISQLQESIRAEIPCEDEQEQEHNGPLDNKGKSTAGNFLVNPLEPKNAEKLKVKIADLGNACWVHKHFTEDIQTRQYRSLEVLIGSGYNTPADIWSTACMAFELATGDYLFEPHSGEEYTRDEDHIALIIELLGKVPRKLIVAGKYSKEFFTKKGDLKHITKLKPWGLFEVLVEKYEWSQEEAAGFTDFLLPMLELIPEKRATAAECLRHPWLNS

[17] = biological target: Tyrosine-protein kinase receptor TYRO3 (Homo sapiens, UniProt Q06418); assay type: functional;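 note: TYRO3 value obtained as one member of a kinome-wide profiling panel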
[18] = biological target: Homeodomain-interacting protein kinase 2 (Homo sapiens, UniProt Q9H2X6); assay type: functional;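 note: measured within a kinome-wide kinase profiling panel, HIPK2 being one panel member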
Homeodomain-interacting protein kinase 2, sequence (Q9H2X6 whole entry): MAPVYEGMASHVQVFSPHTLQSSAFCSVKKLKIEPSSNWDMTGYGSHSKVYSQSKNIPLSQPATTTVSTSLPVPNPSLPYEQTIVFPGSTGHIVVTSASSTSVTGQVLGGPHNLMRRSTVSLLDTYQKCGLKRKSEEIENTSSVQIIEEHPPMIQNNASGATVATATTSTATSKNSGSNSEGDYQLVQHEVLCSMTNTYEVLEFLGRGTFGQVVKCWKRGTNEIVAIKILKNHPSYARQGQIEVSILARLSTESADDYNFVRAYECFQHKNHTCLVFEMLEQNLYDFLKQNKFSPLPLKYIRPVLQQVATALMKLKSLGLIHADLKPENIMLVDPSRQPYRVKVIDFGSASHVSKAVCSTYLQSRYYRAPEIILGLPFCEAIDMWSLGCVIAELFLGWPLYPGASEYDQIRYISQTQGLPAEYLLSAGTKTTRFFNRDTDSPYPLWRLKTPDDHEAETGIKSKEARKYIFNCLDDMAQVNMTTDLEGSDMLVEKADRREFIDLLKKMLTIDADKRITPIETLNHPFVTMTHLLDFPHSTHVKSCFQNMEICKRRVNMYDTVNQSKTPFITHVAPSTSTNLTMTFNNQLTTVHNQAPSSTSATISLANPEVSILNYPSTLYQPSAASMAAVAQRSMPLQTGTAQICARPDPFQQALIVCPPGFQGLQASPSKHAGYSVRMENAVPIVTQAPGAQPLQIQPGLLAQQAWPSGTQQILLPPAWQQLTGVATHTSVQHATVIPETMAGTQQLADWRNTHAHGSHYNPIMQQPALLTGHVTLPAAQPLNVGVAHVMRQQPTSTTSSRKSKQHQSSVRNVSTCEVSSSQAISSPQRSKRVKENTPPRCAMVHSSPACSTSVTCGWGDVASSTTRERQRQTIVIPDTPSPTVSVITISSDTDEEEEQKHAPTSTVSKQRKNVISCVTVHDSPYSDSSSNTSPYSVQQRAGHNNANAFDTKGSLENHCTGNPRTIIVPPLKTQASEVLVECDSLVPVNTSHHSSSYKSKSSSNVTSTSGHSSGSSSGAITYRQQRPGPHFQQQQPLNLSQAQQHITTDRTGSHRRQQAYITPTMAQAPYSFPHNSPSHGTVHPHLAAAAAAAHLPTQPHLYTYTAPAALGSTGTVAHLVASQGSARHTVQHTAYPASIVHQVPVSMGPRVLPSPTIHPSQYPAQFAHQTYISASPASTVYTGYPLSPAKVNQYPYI

[19] = biological target: Tyrosine-protein kinase FRK (Homo sapiens, UniProt P42685); assay type: functional;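 note: FRK tested as one member of a kinome panel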
[20] = biological target: Receptor tyrosine-protein kinase erbB-2 (Homo sapiens, UniProt P04626); experiment: Navigating the Kinome. Panel member name: ERBB2; assay type: functional
[21] = biological target: High affinity nerve growth factor receptor (Homo sapiens, UniProt P04629); assay type: functional;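 note: NTRK1 tested as one member of a kinome-wide profiling panel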
[22] = biological target: Dual specificity protein kinase CLK2 (Homo sapiens, UniProt P49760); assay type: functional
[23] = biological target: Calcium/calmodulin-dependent protein kinase type II subunit delta (Homo sapiens, UniProt Q13557); assay type: functional
Calcium/calmodulin-dependent protein kinase type II subunit delta, sequence (Q13557 whole entry): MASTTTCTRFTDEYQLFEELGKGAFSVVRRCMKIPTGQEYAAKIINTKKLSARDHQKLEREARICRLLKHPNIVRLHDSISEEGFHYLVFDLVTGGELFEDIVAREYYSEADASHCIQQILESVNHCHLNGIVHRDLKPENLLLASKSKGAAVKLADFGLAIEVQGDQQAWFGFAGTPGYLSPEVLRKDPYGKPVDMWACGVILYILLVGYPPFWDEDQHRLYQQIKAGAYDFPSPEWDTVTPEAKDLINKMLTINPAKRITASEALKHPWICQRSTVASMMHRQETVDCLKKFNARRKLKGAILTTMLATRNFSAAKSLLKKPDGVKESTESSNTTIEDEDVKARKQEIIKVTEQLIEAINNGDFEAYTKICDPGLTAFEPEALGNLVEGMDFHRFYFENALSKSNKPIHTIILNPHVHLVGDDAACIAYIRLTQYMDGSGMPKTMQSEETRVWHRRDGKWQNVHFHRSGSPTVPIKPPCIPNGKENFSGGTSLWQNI

[24] = biological target: Ribosomal protein S6 kinase alpha-5 (Homo sapiens, UniProt O75582); assay type: functional
[25] = biological target: MAP/microtubule affinity-regulating kinase 3 (Homo sapiens, UniProt P27448); assay type: functional;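 note: MARK3 affinity measured as one member of a kinome panel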
MAP/microtubule affinity-regulating kinase 3, sequence (P27448 whole entry): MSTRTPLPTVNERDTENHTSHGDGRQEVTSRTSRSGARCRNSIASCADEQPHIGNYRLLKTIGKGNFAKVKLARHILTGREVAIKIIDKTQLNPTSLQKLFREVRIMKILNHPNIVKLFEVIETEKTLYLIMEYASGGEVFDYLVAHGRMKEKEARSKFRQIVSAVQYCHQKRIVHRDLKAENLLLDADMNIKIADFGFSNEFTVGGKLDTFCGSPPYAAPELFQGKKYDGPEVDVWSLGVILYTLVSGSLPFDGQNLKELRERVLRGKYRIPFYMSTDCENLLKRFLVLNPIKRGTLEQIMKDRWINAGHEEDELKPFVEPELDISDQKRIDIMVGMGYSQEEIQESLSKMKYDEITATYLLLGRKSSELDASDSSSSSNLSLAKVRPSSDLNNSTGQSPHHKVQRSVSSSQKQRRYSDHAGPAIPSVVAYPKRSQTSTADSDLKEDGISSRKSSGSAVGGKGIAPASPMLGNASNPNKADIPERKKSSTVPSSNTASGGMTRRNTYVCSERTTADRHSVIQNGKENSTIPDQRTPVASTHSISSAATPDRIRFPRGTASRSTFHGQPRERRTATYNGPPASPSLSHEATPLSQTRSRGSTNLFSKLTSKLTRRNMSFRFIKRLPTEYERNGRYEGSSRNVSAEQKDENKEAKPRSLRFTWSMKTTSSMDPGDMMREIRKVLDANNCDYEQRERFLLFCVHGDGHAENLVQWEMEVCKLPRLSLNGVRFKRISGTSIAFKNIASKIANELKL

[26] = biological target: Aurora kinase A (Homo sapiens, UniProt O14965); assay type: functional;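 note: value from the Navigating the Kinome kinase panel profiling, panel entry STK6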
[27] = biological target: Mitogen-activated protein kinase 12 (Homo sapiens, UniProt P53778); assay type: functional;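 note: measured as one member of a kinome-wide kinase profiling panel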
Mitogen-activated protein kinase 12, sequence (P53778 whole entry): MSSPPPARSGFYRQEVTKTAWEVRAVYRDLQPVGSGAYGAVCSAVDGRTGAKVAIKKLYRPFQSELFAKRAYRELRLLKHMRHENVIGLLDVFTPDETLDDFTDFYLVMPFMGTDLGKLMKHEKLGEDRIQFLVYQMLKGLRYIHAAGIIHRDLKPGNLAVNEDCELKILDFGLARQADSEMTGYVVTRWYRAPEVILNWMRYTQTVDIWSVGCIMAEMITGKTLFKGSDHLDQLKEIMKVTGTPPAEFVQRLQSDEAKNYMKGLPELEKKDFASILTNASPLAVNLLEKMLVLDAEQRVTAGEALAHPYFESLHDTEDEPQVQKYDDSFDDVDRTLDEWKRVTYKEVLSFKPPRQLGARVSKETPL

[28] = biological target: T2, Serine/threonine-protein kinase Chk1 (Homo sapiens, UniProt O14757); assay type: functional;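 note: measured as one member of a kinome-wide kinase profiling panel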
T2 sequence (O14757 whole entry): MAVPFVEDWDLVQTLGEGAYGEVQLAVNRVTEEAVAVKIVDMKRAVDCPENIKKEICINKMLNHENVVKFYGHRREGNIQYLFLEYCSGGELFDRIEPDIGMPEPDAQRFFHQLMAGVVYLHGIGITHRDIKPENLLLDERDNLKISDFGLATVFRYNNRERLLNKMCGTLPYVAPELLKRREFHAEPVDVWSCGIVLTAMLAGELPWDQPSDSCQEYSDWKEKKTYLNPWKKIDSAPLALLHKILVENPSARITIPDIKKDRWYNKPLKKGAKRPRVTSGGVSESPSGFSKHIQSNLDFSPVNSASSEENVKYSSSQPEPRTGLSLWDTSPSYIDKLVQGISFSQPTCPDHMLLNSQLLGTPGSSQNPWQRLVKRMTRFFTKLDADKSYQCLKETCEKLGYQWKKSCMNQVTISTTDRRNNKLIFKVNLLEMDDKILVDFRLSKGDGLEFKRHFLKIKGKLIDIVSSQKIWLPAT

[29] = biological target: STE20-like serine/threonine-protein kinase (Homo sapiens, UniProt Q9H2G2); assay type: functional
[30] = biological target: Tyrosine-protein kinase Srms (Homo sapiens, UniProt Q9H3Y6); assay type: functional;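 note: SRMS measured as one member of a kinome-wide kinase profiling panel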
[31] = biological target: Eukaryotic elongation factor 2 kinase (Homo sapiens, UniProt O00418); assay type: functional
[32] = biological target: Aurora kinase B (Homo sapiens, UniProt Q96GD4); assay type: functional
Aurora kinase B, sequence (Q96GD4 whole entry): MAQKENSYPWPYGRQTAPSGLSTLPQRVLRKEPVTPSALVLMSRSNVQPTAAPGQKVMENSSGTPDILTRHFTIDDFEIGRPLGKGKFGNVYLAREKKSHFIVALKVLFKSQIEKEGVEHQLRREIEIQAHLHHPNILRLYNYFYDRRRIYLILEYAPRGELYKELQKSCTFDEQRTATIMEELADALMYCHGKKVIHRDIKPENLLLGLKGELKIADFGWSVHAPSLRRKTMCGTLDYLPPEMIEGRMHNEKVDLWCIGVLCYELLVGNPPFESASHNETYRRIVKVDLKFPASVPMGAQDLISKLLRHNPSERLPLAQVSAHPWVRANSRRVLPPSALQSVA

[33] = biological target: C-C chemokine receptor type 6 (Homo sapiens, UniProt P51684); experiment: antagonism of CCR6 beta-arrestin recruitment – cell-based, luminescent beta-arrestin readout, dose response (AID 504728); assay type: functional
[34] = viability of PTEN-deleted HCT116 cells – cell-based, HCT116 PTEN knockout, dose response (AID 1047); assay type: functional;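 note: HCT116 colon tumor cells with PTEN knocked out; cells exposed to compound for 60 hours before readout; potency for loss of cell viability measured by luminescence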

SMILES: CC(=O)N(C1=C(Cl)C(=O)c2ccccc2C1=O)C1CCCCC1
- IC50 [1]: 38300 nM (active)
- IC50 [2]: 5300 nM (active)
- IC50 [3]: 3650 nM (active)
- IC50 [4]: 19500 nM (inactive)

SMILES: Oc1ccc(-c2cn3c(n2)SCC3)cc1O
- IC50 [5]: > 59600 nM (not active)

SMILES: O=C1Nc2ccc3ncsc3c2C1=CNc1ccc(S(=O)(=O)Nc2ccccn2)cc1
- Ki [6]: 126 nM (active)
- Ki [7]: 3.98 nM (active)
- Ki [8]: 12.6 nM (active)
- Ki [9]: 25.1 nM (active)
- Ki [10]: 126 nM (active)
- Ki [11]: 200 nM (active)
- Ki [12]: 794 nM (active)
- Ki [13]: > 7940 nM (inactive)
- Ki [14]: 200 nM (active)
- Ki [15]: 1580 nM (active)
- Ki [16]: 1000 nM (active)
- Ki [17]: 126 nM (active)
- Ki [18]: 126 nM (active)
- Ki [19]: 31.6 nM (active)
- Ki [20]: > 1580 nM (inactive)
- Ki [21]: 20 nM (active)
- Ki [22]: 50.1 nM (active)
- Ki [23]: 79.4 nM (active)
- Ki [24]: 794 nM (active)
- Ki [25]: 39.8 nM (active)
- Ki [26]: 15.8 nM (active)
- Ki [27]: 3160 nM (active)
- Ki [28]: 158 nM (active)
- Ki [29]: 126 nM (active)
- Ki [30]: > 1580 nM (inactive)
- Ki [31]: > 3980 nM (inactive)
- Ki [32]: 3.98 nM (active)

SMILES: Cc1ccc(NC2=C/C(=N\S(=O)(=O)c3cccs3)c3ccccc3C2=O)c(C)c1
- IC50 [33]: > 66600 nM (inactive)
- EC50 [34]: 1100 nM (active)
